Like-named read-outs stand apart in the source and are kept apart here.
Legend:
[1] = tested on: metrazol-induced convulsions; test: Suppression of Metrazol-Induced Convulsions in Adult Male Mice; type: in vivo; conditions: Mus musculus, ip
[2] = tested on: Anxiety in the Adult Male Rat; test: Suppression of Anxiety in the Adult Male Rat (rat conflict test); type: in vivo, rats; conditions: Rattus norvegicus
Outline: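 Male rats, 48 h water- and 24 h food-deprived, trained with 200 unpunished licks, tested at expected peak drug activity. Every 20th lick punished by 0.2-s shock over a 3-min session; increase in median shocks versus concurrent vehicle assessed by one-tailed Mann-Whitney test (p<0.05), validated with a positive-control anxiolytic.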

[3] = tested on: metrazol-induced convulsions; test: Suppression of Metrazol-Induced Convulsions in Adult Male Mice; type: in vivo; conditions: Mus musculus, po
[4] = target: benzodiazepine site of the GABA-A receptor; test: Benzodiazepine Receptor Binding Assay (inhibition of 3H-flunitrazepam binding); conditions: read-out: GABAA Receptor Binding IC50
[5] = ip, rat, ip, read-out: Rat Conflict (MED, mg/kg) ip
[6] = po, rat, po, read-out: Rat Conflict (MED, mg/kg) po
[7] = block of clonic convulsions, male CD1 mice, >30 = active dose not determined
[8] = po, minimum effective dose, increase in shocks tolerated, >10 = active dose not determined, read-out: Rat Conflict (MED, mg/kg) po
[9] = inhibition of 3H-flunitrazepam (ca. 3 nM) binding to membranes, 25°C, over 10,000 = not active
[10] = ip, minimum effective dose, increase in shocks tolerated, >10 = active dose not determined, read-out: Rat Conflict (MED, mg/kg) ip

| Compound | IC50 [4] | IC50 [4, 9] | ED50 ([1]; mouse) | minimal effective dose [2, 5] | ED50 ([3]; mouse) | minimal effective dose [2, 6] | ED50 [1, 7] | minimal effective dose [2, 8] | ED50 [3, 7] | minimal effective dose [2, 10] |
| --- | --- | --- | --- | --- | --- | --- | --- | --- | --- | --- |
| O=C1CCN2C(=C1C(=O)Nc1ccccc1F)N(CCN(Cc1ccccc1)Cc1ccccc1)c1cc(F)ccc12 [Compound 64] | 3.02 nM | – | 3 mg/kg | > 10 mg/kg | > 30 mg/kg | – | – | – | – | – |
| CCOCN1C2=C(C(=O)Nc3ccc(S(C)(=O)=O)s3)C(=O)CCN2c2ccc(F)cc21 [Compound 120] | 35.1 nM | – | > 1 mg/kg | – | ~3 mg/kg | > 10 mg/kg | – | – | – | – |
| CC(C)(C)OC(=O)N1CCN(CCN2C3=C(C(=O)Nc4ccccc4F)C(=O)CCN3c3ccc(F)cc32)CC1 [Compound 80] | 3.7 nM | – | > 1 mg/kg | – | > 30 mg/kg | > 10 mg/kg | – | – | – | – |
| CN(C)CCCN1C2=C(C(=O)Nc3c(F)cccc3F)C(=O)CCN2c2ccc(F)cc21 [Compound 66] | 83.7 nM | – | > 30 mg/kg | > 10 mg/kg | > 10 mg/kg | – | – | – | – | – |
| COCCN(C)CCN1C2=C(C(=O)Nc3ccccc3F)C(=O)CCN2c2ccc(F)cc21 [Compound 38, 7-Fluoro-1,2-dihydro-5-[N-(2-(methoxy)ethyl)-2-(methylamino)ethyl]-3-oxo-N-(2-fluorophenyl)pyrido[1,2-a]-benzimidazole-4-carboxamide] | – | 4.06 nM | – | – | – | – | < 1 mg/kg | 3 mg/kg | 1 mg/kg | – |
| CN(C)c1ccc(CCN2C3=C(C(=O)Nc4c(F)cccc4F)C(=O)CCN3c3ccc(F)cc32)cc1 [Compound 83] | 36.2 nM | – | 3 mg/kg | > 10 mg/kg | < 30 mg/kg | – | – | – | – | – |
| CCOCN1C2=C(C(=O)Nc3ccc(F)cc3F)C(=O)CCN2c2ccc(F)cc21 [Compound 123] | 1.19 nM | – | < 1 mg/kg | ≤ 0.1 mg/kg | < 3 mg/kg | 0.1 mg/kg | – | – | – | – |
| CCOCCN1C2=C(C(=O)Nc3ccc(C)s3)C(=O)CCN2c2ccc(F)cc21 [Compound 131] | 1.03 nM | – | < 1 mg/kg | – | ~0.6 mg/kg | ~1 mg/kg | – | – | – | – |
| CN(CCN1C2=C(C(=O)Nc3c(F)cccc3F)C(=O)CCN2c2ccc(F)cc21)Cc1ccc(F)cc1 [Compound 65] | 11 nM | – | > 10 mg/kg | > 10 mg/kg | > 30 mg/kg | – | – | – | – | – |
| O=C1CCN2C(=C1C(=O)Nc1ccccc1F)N(CCO)c1cc(F)ccc12 [Compound 168, 7-Fluoro-1,2-dihydro-5-(2-hydroxyethyl)-3-oxo-N-(2-fluorophenyl)pyrido[1,2-a]benzimidazole-4-carboxamide] | 1.17 nM | – | < 1 mg/kg | 10 mg/kg | < 30 mg/kg | > 10 mg/kg | – | – | – | – |
| O=C1CCN2C(=C1C(=O)Nc1ccccc1F)N(CCN1CCOCC1)c1cc(F)ccc12 [Compound 88] | – | 3.67 nM | – | – | – | – | 0.1 mg/kg | 10 mg/kg | 7 mg/kg | > 10 mg/kg |
| CCOCN1C2=C(C(=O)NC3CC3)C(=O)CCN2c2ccc(F)cc21 [Compound 111] | 1.9 nM | – | > 1 mg/kg | – | > 30 mg/kg | > 10 mg/kg | – | – | – | – |
| O=C1CCN2C(=C1C(=O)Nc1ccccc1F)N(CCN1CCNCC1)c1cc(F)ccc12 [Compound 81] | 12.7 nM | – | > 1 mg/kg | – | > 30 mg/kg | > 10 mg/kg | – | – | – | – |
| COCCN1C2=C(C(=O)Nc3cccs3)C(=O)CCN2c2ccc(F)cc21 [Compound 139] | 1.79 nM | – | < 1 mg/kg | – | ~0.2 mg/kg | ~1 mg/kg | – | – | – | – |
| O=C1CCN2C(=C1C(=O)Nc1ccccc1F)N(CCNC(=O)c1ccccc1C(F)(F)F)c1cc(F)ccc12 [Compound 76] | 40.9 nM | – | > 1 mg/kg | – | > 30 mg/kg | > 10 mg/kg | – | – | – | – |
| O=C1CCN2C(=C1C(=O)Nc1ccccc1F)N(CCCOCc1ccccc1)c1cc(F)ccc12 [Compound 170] | 0.21 nM | – | < 1 mg/kg | < 10 mg/kg | < 30 mg/kg | > 10 mg/kg | – | – | – | – |
| N#CCCNC(=O)CN1C2=C(C(=O)Nc3ccccc3F)C(=O)CCN2c2ccc(F)cc21 [Compound 36, 7-Fluoro-1,2-dihydro-5-[N-(2-cyanoethyl)-2-acetamido]-3-oxo-N-(2-fluorophenyl)pyrido[1,2-a]benzimidazole-4-carboxamide] | – | 3.3 nM | – | – | – | – | > 1 mg/kg | > 10 mg/kg | > 30 mg/kg | – |
| CN(C)CCN1C2=C(C(=O)Nc3ccccc3F)C(=O)CCN2c2cccc(F)c21 [Compound 45] | – | 40.6 nM | – | – | – | – | 1 mg/kg | 10 mg/kg | 3 to 10 mg/kg | > 10 mg/kg |
| COCCN1C2=C(C(=O)Nc3nccs3)C(=O)CCN2c2ccccc21 [Compound 102] | 8.82 nM | – | ~1 mg/kg | – | ~6 mg/kg | 10 mg/kg | – | – | – | – |
| CC1(C)OCC(CN2C3=C(C(=O)Nc4ccccc4F)C(=O)CCN3c3ccc(F)cc32)O1 (stereo not drawn) [Compound 164] | 2.75 nM | – | 0.1 mg/kg | < 10 mg/kg | 1 mg/kg | 10 mg/kg | – | – | – | – |
| CN(C)CCN1C2=C(C(=O)Nc3c(F)cccc3F)C(=O)CCN2c2ccc(F)cc21 [Compound 73] | 32.1 nM | – | > 10 mg/kg | > 10 mg/kg | > 30 mg/kg | – | – | – | – | – |

Second part, led by results:

| IC50 [4] | IC50 [4, 9] | Compound | ED50 ([1]; mouse) | minimal effective dose [2, 5] | ED50 ([3]; mouse) | minimal effective dose [2, 6] | ED50 [1, 7] | minimal effective dose [2, 8] | ED50 [3, 7] | minimal effective dose [2, 10] |
| --- | --- | --- | --- | --- | --- | --- | --- | --- | --- | --- |
| 1.08 nM | – | O=C1CCN2C(=C1C(=O)Nc1ccccc1F)N(CCCO)c1cc(F)ccc12 [Compound 169] | 0.1 mg/kg | 10 mg/kg | 0.5 mg/kg | 10 mg/kg | – | – | – | – |
| 0.3 nM | – | COC(=O)OCCN1C2=C(C(=O)Nc3ccccc3F)C(=O)CCN2c2ccc(F)cc21 [Compound 114, 7-Fluoro-1,2-dihydro-5-[2-(methoxycarbonyloxy)ethyl]-3-oxo-N-(2-fluorophenyl)pyrido[1,2-a]benzimidazole-4-carboxamide] | < 1 mg/kg | – | ≤ 3 mg/kg | 3 mg/kg | – | – | – | – |
| 1.98 nM | – | COCCN1C2=C(C(=O)Nc3ccccc3F)C(=O)CCN2c2ccc(C(F)(F)F)cc21 [Compound 148] | < 1 mg/kg | – | ~10 mg/kg | > 10 mg/kg | – | – | – | – |
| 0.84 nM | – | CCOCN1C2=C(C(=O)Nc3cccs3)C(=O)CCN2c2ccccc21 [Compound 105] | < 1 mg/kg | – | < 3 mg/kg | 10 mg/kg | – | – | – | – |
| – | 1.84 nM | N#CCN1C2=C(C(=O)Nc3ccccc3F)C(=O)CCN2c2ccc(F)cc21 [Compound 89] | – | – | – | – | < 1 mg/kg | 1 mg/kg | 0.5 mg/kg | – |
| 0.89 nM | – | CCOCCN1C2=C(C(=O)Nc3sccc3Cl)C(=O)CCN2c2ccc(F)cc21 [Compound 125] | < 1 mg/kg | – | > 30 mg/kg | > 10 mg/kg | – | – | – | – |
| 31.8 nM | – | CN(C)CCN1C2=C(C(=O)Nc3ccc(F)cc3F)C(=O)CCN2c2ccc(F)cc21 [Compound 55] | 1 mg/kg | < 10 mg/kg | 1 mg/kg | 3 mg/kg | – | – | – | – |
| 78.4 nM | – | CC(C)N(CCN1C2=C(C(=O)Nc3ccccc3F)C(=O)CCN2c2ccc(F)cc21)C(C)C [Compound 69] | 1 mg/kg | > 10 mg/kg | > 30 mg/kg | – | – | – | – | – |
| 0.26 nM | – | O=C1CCN2C(=C1C(=O)Nc1ccccc1F)N(COCc1ccccc1)c1cc(F)ccc12 [Compound 167] | < 1 mg/kg | > 10 mg/kg | < 30 mg/kg | > 10 mg/kg | – | – | – | – |

Reference: patent EP1420018A1, “Pyrido[1,2-a]benzimidazole derivatives useful in treating central nervous system disorders” (Ortho-McNeil Pharmaceutical, Inc., priority 1996, dated 1998)
